Measured values from US20230021483A1, “[…] […] METHOD AND CLASSIFICATION OF PHARMACEUTICAL COMPONENTS BY USING TRANSCRIPTOMES” (National Institutes of Biomedical Innovation, Health and …, priority 2016, published 2023).
Several values for one entry are separate records, joined by “and”; a condition that tells them apart may be missing. Equal values may be shown once.

System: preferentially upregulated genes in LV, SP, LN
Test: Z-score-based differential gene expression analysis (adjuvant group- or adjuvant-associated genes, 40 module mapping, TargetMine annotation)
Type: in vivo, C57BL/6 mice
Details: ID
In short: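 Gene groups for each organ were built from combined z-score cutoffs across adjuvants, ranging from z>1 to z>3. Scores came from fold changes standardized per gene over the whole organ data set, with the three replicate z-scores added per adjuvant; sums above 3 marked preferential expression.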

## Nc1nc2c(ncn2[C@@H]2O[C@@H]3COP(=O)(O)O[C@H]4[C@@H](O)[C@H](n5cnc6c(=O)[nH]c(N)nc65)O[C@@H]4COP(=O)(O)O[C@H]3[C@H]2O)c(=O)[nH]1 [cdiGMP, Cyclic diguanylate monophosphate]
LN, samples x1-x3, Modules 29
  z-score of fold change, 1425837_a_at Ccrn4l: 1.34 and 1.091 and 1.529
  z-score of fold change, 1436387_at C330006P03Rik///Homer1: 1.372 and 1.437 and 1.158
  z-score of fold change, 1439349_at Sbno2: 1.367 and 1.407 and 1.166
  z-score of fold change, 1444010_at Eif4e: 1.659 and 1.049 and 1.227
  z-score of fold change, 1448325_at Ppp1r15a: 1.314 and 1.203 and 1.441
  z-score of fold change, 1449311_at Bach1: 1.178 and 1.558 and 1.189
  z-score of fold change, 1450297_at Il6: 1.437 and 0.989 and 1.53
  z-score of fold change, 1455197_at Rnd1: 1.54 and 1.27 and 1.166
  z-score of fold change, 1455899_x_at Socs3: 1.206 and 1.544 and 1.18
LN, samples x1-x3, Modules 34
  z-score of fold change, 1417252_at Ptgs2: 1.507 and 1.214 and 1.232
  z-score of fold change, 1417263_at Ptgs2: 1.51 and 0.965 and 1.47
  z-score of fold change, 1419132_at Tlr2: 1.576 and 1.128 and 1.246
  z-score of fold change, 1421473_at Il1a: 1.525 and 1.178 and 1.257
LN, samples x1-x3, Modules 35
  z-score of fold change, 1439981_at Tespa1: 1.343 and 1.427 and 1.18
  z-score of fold change, 1441843_s_at 5230400M03Rik: 1.442 and 1.354 and 1.171
  z-score of fold change, 1442556_at ---: 1.421 and 1.315 and 1.245
  z-score of fold change, 1443414_at C78513: 1.402 and 0.963 and 1.557
  z-score of fold change, 1444598_at ---: 1.559 and 1.318 and 1.053
  z-score of fold change, 1445534_at ---: 1.345 and 1.515 and 1.078
  z-score of fold change, 1446245_at ---: 1.239 and 1.22 and 1.46
  z-score of fold change, 1457944_at ---: 1.366 and 1.428 and 1.146
  z-score of fold change, 1458376_at B930025B16Rik: 1.188 and 1.502 and 1.273
  z-score of fold change, 1459144_at ---: 1.275 and 1.199 and 1.493
LN, samples x1-x3, Modules 36
  z-score of fold change, 1425687_at Cflar: 1.199 and 1.3 and 1.469
  z-score of fold change, 1427736_a_at Ccrl2: 1.328 and 1.075 and 1.554
  z-score of fold change, 1449169_at Has2: 1.306 and 1.158 and 1.458
  z-score of fold change, 1453636_at Pcgf5: 1.332 and 1.143 and 1.496
  z-score of fold change, 1457888_at ---: 1.466 and 1.08 and 1.38
LN, samples x1-x3, Modules 37
  z-score of fold change, 1419508_at Ripk1: 1.035 and 1.437 and 1.467
  z-score of fold change, 1421578_at Ccl4: 1.402 and 1.22 and 1.368
  z-score of fold change, 1421679_a_at Cdkn1a: 1.429 and 1.421 and 1.13
  z-score of fold change, 1424638_at Cdkn1a: 1.624 and 1.232 and 1.074
  z-score of fold change, 1433508_at Klf6: 1.271 and 1.413 and 1.263
  z-score of fold change, 1434350_at Csrnp1: 1.353 and 1.305 and 1.308
  z-score of fold change, 1439680_at Tnfsf10: 1.169 and 1.36 and 1.399
  z-score of fold change, 1448724_at Cish: 1.476 and 1.357 and 1.106
  z-score of fold change, 1451340_at Arid5a: 1.5 and 1.292 and 1.161
  z-score of fold change, 1453851_a_at Gadd45g: 1.368 and 1.383 and 1.21
  z-score of fold change, 1457404_at Nfkbiz: 1.371 and 1.232 and 1.386
  z-score of fold change, 1458589_at ---: 1.137 and 1.339 and 1.469
LN, samples x1-x3, Modules 40
  z-score of fold change, 1422054_a_at 5kil: 1.491 and 1.218 and 1.211
  z-score of fold change, 1428735_at Cd69: 1.22 and 1.344 and 1.378
LV, sample x1
  Adar 1425405_a_at (Group G1, Modules 20): 1.58
  Adar 1434268_at (Group G1, Modules 20): 1.7
  Ddx58 1436562_at (Group G1, Modules 20): 0.94
  Ddx58 1456890_at (Group G1, Modules 20): 1.2
  Eif2ak2 1422005_at (Group G1, Modules 20): 1.02
  G3bp2 1421323_a_at (Group G1, Modules 20): 1.74
  Gm9706///Isg15 1431591_s_at (Group G1, Modules 20): 1.01
  H2-T10///H2-T22///H2-T9 1449875_s_at (Group G1, Modules 20): 1.07
  Ifih1 1426276_at (Group G1, Modules 20): 0.89
  Ifit1 1450783_at (Group G1, Modules 20): 2.21
  Ifit3 1449025_at (Group G1, Modules 20): 1.7
  Irf7 1417244_a_at (Group G1, Modules 20): 0.85
  Irgm1 1418825_at (Group G1, Modules 20): 1.33
  Mndal 1426906_at (Group G1, Modules 20): 1.77
  Pml 1448757_at (Group G1, Modules 20): 1.41
  Pml 1456103_at (Group G1, Modules 20): 1.31
  Rnf213 1455500_at (Group G1, Modules 20): 2.07
